The values that follow come from ChEMBL document CHEMBL5661979, “Pharmacological inhibition of BMK1 suppresses tumor growth through promyelocytic leukemia protein” (Cancer Cell, 2010).

SMILES strings stand for the structures.

The target of experiment [1] is T1, Phosphatidylinositol 5-phosphate 4-kinase type-2 alpha (Homo sapiens, UniProt P48426).
T1 sequence (P48426 whole entry): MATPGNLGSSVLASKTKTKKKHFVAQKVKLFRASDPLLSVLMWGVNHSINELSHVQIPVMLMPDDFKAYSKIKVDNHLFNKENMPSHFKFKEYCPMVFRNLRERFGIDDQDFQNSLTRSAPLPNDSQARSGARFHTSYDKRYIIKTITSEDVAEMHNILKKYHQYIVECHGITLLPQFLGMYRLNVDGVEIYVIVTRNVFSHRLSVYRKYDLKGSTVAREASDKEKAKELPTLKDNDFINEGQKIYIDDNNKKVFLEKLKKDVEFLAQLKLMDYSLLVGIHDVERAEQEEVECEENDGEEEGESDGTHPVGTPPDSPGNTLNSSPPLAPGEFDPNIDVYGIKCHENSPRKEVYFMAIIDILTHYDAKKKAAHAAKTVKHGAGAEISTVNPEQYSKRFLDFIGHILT
The experiment can be described thus: Inhibition of PIP5K2A in human HeLa cells lysate pre incubated for 15 mins followed by ATP acyl phosphate probe addition and measured after 10 mins by LC-MS/MS analysis. Type of experiment: subcellular.

For experiment [2], the target named is EKC/KEOPS complex subunit TP53RK (Homo sapiens, UniProt Q96S44). As to the kind of experiment: Inhibition of PRPK in human HeLa cells lysate pre incubated for 15 mins followed by ATP acyl phosphate probe addition and measured after 10 mins by LC-MS/MS analysis. Format: subcellular.
Chain of EKC/KEOPS complex subunit TP53RK (Q96S44 whole entry, one chain of several): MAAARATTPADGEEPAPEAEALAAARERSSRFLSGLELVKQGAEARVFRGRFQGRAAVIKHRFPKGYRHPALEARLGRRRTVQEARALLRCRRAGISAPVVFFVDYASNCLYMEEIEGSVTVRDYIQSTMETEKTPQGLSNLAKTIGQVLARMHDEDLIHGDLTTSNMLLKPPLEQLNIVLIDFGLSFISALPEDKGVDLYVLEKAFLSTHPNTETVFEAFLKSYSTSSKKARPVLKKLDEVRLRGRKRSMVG
Experiment [3] concerns the target T2, Serine/threonine-protein kinase D3 (Homo sapiens) (UniProt O94806).
T2 sequence (whole entry): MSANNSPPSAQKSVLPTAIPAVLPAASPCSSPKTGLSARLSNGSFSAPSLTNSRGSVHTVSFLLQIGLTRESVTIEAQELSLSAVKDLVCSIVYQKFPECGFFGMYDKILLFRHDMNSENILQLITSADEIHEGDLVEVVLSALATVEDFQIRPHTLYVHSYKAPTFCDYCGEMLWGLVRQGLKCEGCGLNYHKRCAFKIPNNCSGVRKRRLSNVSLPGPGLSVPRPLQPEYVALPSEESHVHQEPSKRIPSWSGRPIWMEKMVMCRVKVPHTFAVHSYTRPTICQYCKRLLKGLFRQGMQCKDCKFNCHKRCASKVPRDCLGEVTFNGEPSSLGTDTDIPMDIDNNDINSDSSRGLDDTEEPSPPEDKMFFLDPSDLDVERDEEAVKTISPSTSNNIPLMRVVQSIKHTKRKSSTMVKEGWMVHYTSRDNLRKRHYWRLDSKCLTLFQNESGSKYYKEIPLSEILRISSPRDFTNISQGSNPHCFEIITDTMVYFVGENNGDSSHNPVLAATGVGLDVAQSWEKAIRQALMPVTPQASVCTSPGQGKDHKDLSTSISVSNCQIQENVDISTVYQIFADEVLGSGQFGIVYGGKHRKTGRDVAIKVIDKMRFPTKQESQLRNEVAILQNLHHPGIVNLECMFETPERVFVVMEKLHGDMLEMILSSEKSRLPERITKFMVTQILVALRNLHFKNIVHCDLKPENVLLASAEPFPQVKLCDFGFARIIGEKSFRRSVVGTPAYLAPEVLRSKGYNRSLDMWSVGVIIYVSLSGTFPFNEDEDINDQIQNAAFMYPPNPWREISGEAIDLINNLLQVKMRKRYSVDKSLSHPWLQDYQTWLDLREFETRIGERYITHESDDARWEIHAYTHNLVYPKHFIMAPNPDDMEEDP
The experiment can be described thus: Inhibition of PKD3 in human HeLa cells lysate at 10 uM pre incubated for 15 mins followed by ADP acyl phosphate probe addition and measured after 10 mins by LC-MS/MS analysis relative to control. Type of experiment: subcellular. The conditions noted are these: time 25.0 min.

Experiment [4] concerns the target T3, Serine/threonine-protein kinase TAO2 (Homo sapiens) (UniProt Q9UL54).
T3 sequence (whole entry): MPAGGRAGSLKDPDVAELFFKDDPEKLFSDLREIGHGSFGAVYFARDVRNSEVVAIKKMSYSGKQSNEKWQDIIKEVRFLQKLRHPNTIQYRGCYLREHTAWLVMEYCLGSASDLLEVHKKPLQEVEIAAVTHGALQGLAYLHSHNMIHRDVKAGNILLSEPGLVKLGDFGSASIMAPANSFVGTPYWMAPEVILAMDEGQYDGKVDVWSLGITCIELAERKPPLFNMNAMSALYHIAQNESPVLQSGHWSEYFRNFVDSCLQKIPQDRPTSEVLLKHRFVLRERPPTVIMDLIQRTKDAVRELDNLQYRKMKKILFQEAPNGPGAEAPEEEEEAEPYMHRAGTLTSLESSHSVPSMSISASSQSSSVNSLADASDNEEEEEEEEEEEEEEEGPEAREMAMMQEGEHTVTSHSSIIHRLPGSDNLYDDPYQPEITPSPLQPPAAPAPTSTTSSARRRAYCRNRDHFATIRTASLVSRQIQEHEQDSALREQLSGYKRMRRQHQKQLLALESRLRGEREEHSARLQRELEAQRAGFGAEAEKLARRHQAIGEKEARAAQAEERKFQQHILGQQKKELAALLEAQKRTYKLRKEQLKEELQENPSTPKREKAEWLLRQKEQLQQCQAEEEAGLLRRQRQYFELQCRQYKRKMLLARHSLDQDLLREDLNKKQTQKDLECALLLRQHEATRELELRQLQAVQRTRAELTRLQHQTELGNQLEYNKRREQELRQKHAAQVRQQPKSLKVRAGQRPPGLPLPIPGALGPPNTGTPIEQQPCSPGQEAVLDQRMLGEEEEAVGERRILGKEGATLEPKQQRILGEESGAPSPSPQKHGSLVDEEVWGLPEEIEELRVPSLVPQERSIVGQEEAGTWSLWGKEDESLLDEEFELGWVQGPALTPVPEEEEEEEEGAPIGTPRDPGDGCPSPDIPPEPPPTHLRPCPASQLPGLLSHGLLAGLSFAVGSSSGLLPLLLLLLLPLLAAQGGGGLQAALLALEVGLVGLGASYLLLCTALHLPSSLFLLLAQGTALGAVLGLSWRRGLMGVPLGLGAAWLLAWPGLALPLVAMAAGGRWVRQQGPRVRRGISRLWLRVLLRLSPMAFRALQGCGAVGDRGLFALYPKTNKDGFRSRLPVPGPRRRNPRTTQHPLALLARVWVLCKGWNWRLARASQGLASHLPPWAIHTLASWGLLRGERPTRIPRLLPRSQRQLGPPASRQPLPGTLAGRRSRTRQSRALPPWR
The experiment can be described thus: Inhibition of TAO2 in human HeLa cells lysate at 50 uM pre incubated for 15 mins followed by ATP acyl phosphate probe addition and measured after 10 mins by LC-MS/MS analysis relative to control. Format: subcellular. To be noted: time 25.0 min.

A short description of experiment [5]: Inhibition of HGK/MINK/TNIK in human HeLa cells lysate at 10 uM pre incubated for 15 mins followed by ATP acyl phosphate probe addition and measured after 10 mins by LC-MS/MS analysis relative to control. The conditions noted are these: 25 min, condition cancer.
For experiment [6], the target named is Mitogen-activated protein kinase 14 (Homo sapiens, UniProt Q16539). The experiment can be described thus: Inhibition of P38alpha interaction site in human HeLa cells lysate at 2 uM pre incubated for 15 mins followed by ATP acyl phosphate probe addition and measured after 10 mins by LC-MS/MS analysis relative to control. Type of experiment: subcellular. To be noted: time 25.0 min.
Chain of Mitogen-activated protein kinase 14 (Q16539 whole entry): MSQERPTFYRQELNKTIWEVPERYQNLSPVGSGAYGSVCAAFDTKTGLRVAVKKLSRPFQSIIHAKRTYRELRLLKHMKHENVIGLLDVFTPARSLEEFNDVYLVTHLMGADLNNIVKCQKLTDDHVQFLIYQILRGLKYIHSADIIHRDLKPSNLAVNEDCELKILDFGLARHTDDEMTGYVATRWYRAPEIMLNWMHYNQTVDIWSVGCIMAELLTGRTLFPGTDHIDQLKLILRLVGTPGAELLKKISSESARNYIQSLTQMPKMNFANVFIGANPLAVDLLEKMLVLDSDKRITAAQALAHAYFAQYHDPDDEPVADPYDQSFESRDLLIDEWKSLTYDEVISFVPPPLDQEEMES

As for `CCOc1cc(N2CCC(O)CC2)ccc1Nc1ncc2c(n1)N(C)c1ccccc1C(=O)N2C`, the IC50 in experiment [1] and in experiment [2] was > 50 µM each time. Besides, the results for the inhibition in experiment [3], in experiment [4] and in experiment [6] were -6%, 6.6% and -9.5%, respectively. Also, in experiment [5], the inhibition (usually the drop in the measured response relative to a control, in per cent) at 10 µM is -6.3%.
